Experimental data as given in EP4775208A1, “USE OF PRMT5 INHIBITOR IN TREATMENT OF TUMORS OR CANCERS” (Apeiron Therapeutics (Hong Kong) Ltd., priority 2023, dated 2025).
Values joined by “and” are separate entries in the source; they are usually repeats but may differ in a detail not shown here. Equal entries are not always repeated. Where two headings read alike, the source gives them in different places.

Tests used:
SK-MEL-5 = test: Mini cell panel: inhibition of proliferation of SK-MEL-5 cells; assay type: cell-based; details: Homo sapiens, MTAP (-/-)
Source text: Test 9: Mini Cell Panel: Assay for Inhibitory Activity of Compounds against Proliferation of 20 Tumor Cell Lines
Materials and Cells: Fifteen MTAP(-/-) cell lines and five MTAP wild-type cell lines were purchased from ATCC (USA). Cell culture media, fetal bovine serum (FBS), and penicillin-streptomycin were purchased from Thermo Fisher Scientific (USA). 384-well plates were purchased from PerkinElmer (USA). The CellTiter-Glo assay kit was purchased from Promega (USA). Paclitaxel was used as the control compound.

[1] = Mouse pharmacokinetic experiment (IV and PO, plasma); assay type: in vivo, ICR male mice; details: male, mouse, plasma; ICR mice, PO(10mg/kg) vs IV(3mg/kg); read-out: Bioavailability F (%)
Procedure: II. Mouse Pharmacokinetic Experiment
The compounds used in this experiment are specific embodiments of the present invention, with reference to compound AMG473 as an example from Amgen's patent WO 2022/169948A1, identified as example 473.
(§1) ICR male mice, N=3/group; sourced from Zhejiang Vital River Laboratory Animal Technology Co., Ltd.
(§2) 3. Drug Preparation and Administration
Single oral (PO) administration to ICR mice: Compounds were dissolved in dimethyl sulfoxide, added to polyethylene glycol 400 and sterile water, and then adjusted to a clear solution with a small amount of 1 mol/L hydrochloric acid. After overnight fasting, the mice were orally gavaged with a dose of 10 mg/kg. Single intravenous (IV) administration to ICR mice: Compounds were dissolved in dimethyl sulfoxide, added to polyethylene glycol 400 and sterile water, and then adjusted to a clear solution with a small amount of 1 mol/L hydrochloric acid. After overnight fasting, the mice received tail vein injections with a dose of 3 mg/kg.
Approximately 30 µL/time point blood samples were collected via the tail vein. Potassium ethylenediaminetetraacetate was used as an anticoagulant, and samples were centrifuged at 4000 g/min for 5 minutes at 4°C within 1 hour. Blood sampling time points were 0.0833 (IV), 0.25, 0.5, 1, 2, 4, 6, 8, 24 hours. Samples were stored in a -20°C freezer.
Plasma samples (30µL, 10µL sample + 20µL blank plasma) were mixed with 200µL ice-cold acetonitrile containing internal standards. After vortexing for 30 seconds, samples were centrifuged at 4000g/min for 20 minutes. One hundred microliters of the supernatant were transferred to a 96-well plate, followed by the addition of 200µL ultrapure water. After vortexing for 30 seconds, 5µL or 10µL were injected into LC-MS/MS for analysis. Table 7: Pharmacokinetic Data

[2] = Mouse brain penetration pharmacokinetics study (plasma and brain); assay type: in vivo, ICR male mice
Procedure: IV. Mouse Brain Penetration Pharmacokinetics Study
The test compounds used in this study were the compounds described in the specific examples of the present disclosure.
as §1, §2
Single oral (PO) administration to ICR mice: Compounds were dissolved in dimethyl sulfoxide, added to polyethylene glycol 400 and sterile water, and then adjusted to a clear solution with a small amount of 1 mol/L hydrochloric acid. After overnight fasting, the mice were orally gavaged with a dose of 30 mg/kg or 100 mg/kg.
Blood Collection and Processing: Mice were anesthetized with 5% isoflurane for 3-4 minutes until loss of consciousness. Whole blood (500 µL per time point) was collected via cardiac puncture using dipotassium EDTA (K2EDTA) as the anticoagulant. Plasma was separated by centrifugation ([…] for 5 minutes at 4°C). […] The samples were stored at -80°C.
Brain Tissue Collection: Following complete exsanguination, the thoracic cavity was opened with scissors. The right atrium was incised, and a needle was inserted into the left ventricle. Transcardial perfusion was performed with physiological saline (approximately 10 mL). Upon completion of perfusion, the skull was opened, and brain tissues were harvested and stored at -80°C.
Sample Preparation: A 30 µL plasma aliquot (consisting of 10 µL study sample and 20 µL blank plasma) was mixed with 200 µL of ice-cold acetonitrile containing an internal standard (IS). The mixture was vortexed for 30 seconds and then centrifuged at 4,000 g/min for 20 minutes. A 100 µL aliquot of the supernatant was transferred to a 96-well plate and mixed with 200 µL of ultrapure water. After vortexing for 30 seconds, a volume of 5 µL or 10 µL was injected into the LC-MS/MS system for analysis.
Brain Homogenate Preparation: Brain tissue samples were weighed and homogenized in phosphate-buffered saline (PBS) at a 1:4 ratio (tissue weight [g] to PBS volume [mL]). A 30 µL aliquot of brain homogenate (consisting of 10 µL study sample and 20 µL blank brain homogenate) was mixed with 200 µL of ice-cold acetonitrile containing an internal standard. The mixture was vortexed for 30 seconds and centrifuged at 4,000 g/min for 20 minutes. A 100 µL aliquot of the supernatant was transferred to a 96-well plate and mixed with 200 µL of ultrapure water. After vortexing for 30 seconds, a volume of 2 µL or 10 µL was injected into the LC-MS/MS system for analysis. Table 9: PK data

[3] = ICR male mice, PO(30mg/kg), sampling time 4 h, individual animals, 30 mg/kg
[4] = ICR male mice, PO(30mg/kg), sampling time 8 h, individual animals, 30 mg/kg
[5] = ICR male mice, PO(30mg/kg), sampling time 12 h, individual animals, 30 mg/kg
[6] = ICR male mice, PO(30mg/kg), sampling time 24 h, individual animals, 30 mg/kg
[7] = ICR male mice, PO(30mg/kg), sampling time 36 h, individual animals, 30 mg/kg
[8] = ICR male mice, PO(100mg/kg), sampling time 2 h, individual animals, 100 mg/kg
[9] = ICR male mice, PO(100mg/kg), sampling time 4 h, individual animals, 100 mg/kg
[10] = ICR male mice, PO(100mg/kg), sampling time 8 h, individual animals, 100 mg/kg
[11] = ICR male mice, PO(100mg/kg), sampling time 24 h, individual animals, 100 mg/kg

CN(C(=O)c1ccc2nc(N)c3cncn3c2c1)[C@@H]1COc2cc(C(F)(F)F)ccc21 [Example 107, (S)-4-amino-N-methy 1-N-(6-(trifluoromethy 1)-2,3-dihydrobenzofuran-3-yl)imidazo[1,5-a]quinoxaline-8-carboxamide]
IC50 (SK-MEL-5): > 1000 nM
bioavailability [1]: 119%
B/P ratio [2, 3]: 0.122 and 0.152
Brain concentration [2, 3]: 885 ng/g and 1290 ng/g and 1780 ng/g
Plasma concentration [2, 3]: 10600 ng/mL and 11700 ng/mL
B/P ratio [2, 4]: 0.227 and 0.305
Brain concentration [2, 4]: 1700 ng/g and 2080 ng/g
Plasma concentration [2, 4]: 7500 ng/mL and 6810 ng/mL
B/P ratio [2, 5]: 0.435 and 0.320
Brain concentration [2, 5]: 1040 ng/g and 855 ng/g
Plasma concentration [2, 5]: 2390 ng/mL and 2670 ng/mL
B/P ratio [2, 6]: 0.186 and 0.225
Brain concentration [2, 6]: 47.6 ng/g and 65.0 ng/g and 142 ng/g
Plasma concentration [2, 6]: 201 ng/mL and 349 ng/mL and 631 ng/mL
B/P ratio [2, 7]: 0.653 and 0.705
Brain concentration [2, 7]: 25.0 ng/g and 19.1 ng/g
Plasma concentration [2, 7]: 38.3 ng/mL and 27.1 ng/mL
B/P ratio [2, 8]: 0.114 and 0.195
Brain concentration [2, 8]: 6650 ng/g and 4740 ng/g and 10800 ng/g
Plasma concentration [2, 8]: 41500 ng/mL and 55400 ng/mL
B/P ratio [2, 9]: 0.143 and 0.168
Brain concentration [2, 9]: 4560 ng/g and 6100 ng/g
Plasma concentration [2, 9]: 32000 ng/mL and 36400 ng/mL
B/P ratio [2, 10]: 0.151 and 0.142
Brain concentration [2, 10]: 1455 ng/g and 2480 ng/g
Plasma concentration [2, 10]: 9620 ng/mL and 17500 ng/mL
B/P ratio [2, 11]: 0.278 and 0.222
Brain concentration [2, 11]: 356 ng/g and 434 ng/g
Plasma concentration [2, 11]: 1280 ng/mL and 1950 ng/mL
Kp at 4 h ([2]; male, ICR, mouse, brain and plasma, po, 30 mg/kg, ICR male mice, PO(30mg/kg), sampling time 4 h, individual animals, read-out: B/P ratio): 0.118
Kp at 8 h ([2]; male, ICR, mouse, brain and plasma, po, 30 mg/kg, ICR male mice, PO(30mg/kg), sampling time 8 h, individual animals, read-out: B/P ratio): 0.286
Kp at 12 h ([2]; male, ICR, mouse, brain and plasma, po, 30 mg/kg, ICR male mice, PO(30mg/kg), sampling time 12 h, individual animals, read-out: B/P ratio): 0.365
Kp at 24 h ([2]; male, ICR, mouse, brain and plasma, po, 30 mg/kg, ICR male mice, PO(30mg/kg), sampling time 24 h, individual animals, read-out: B/P ratio): 0.237
Kp at 36 h ([2]; male, ICR, mouse, brain and plasma, po, 30 mg/kg, ICR male mice, PO(30mg/kg), sampling time 36 h, individual animals, read-out: B/P ratio): 0.605
Kp at 2 h ([2]; male, ICR, mouse, brain and plasma, po, 100 mg/kg, ICR male mice, PO(100mg/kg), sampling time 2 h, individual animals, read-out: B/P ratio): 0.171
Kp at 4 h ([2]; male, ICR, mouse, brain and plasma, po, 100 mg/kg, ICR male mice, PO(100mg/kg), sampling time 4 h, individual animals, read-out: B/P ratio): 0.168
Kp at 8 h ([2]; male, ICR, mouse, brain and plasma, po, 100 mg/kg, ICR male mice, PO(100mg/kg), sampling time 8 h, individual animals, read-out: B/P ratio): 0.2
Kp at 24 h ([2]; male, ICR, mouse, brain and plasma, po, 100 mg/kg, ICR male mice, PO(100mg/kg), sampling time 24 h, individual animals, read-out: B/P ratio): 0.321
concentration at 8 h ([2]; male, ICR, mouse, brain, po, 30 mg/kg, ICR male mice, PO(30mg/kg), sampling time 8 h, individual animals, read-out: Brain concentration): 1820 ng/g
concentration at 12 h ([2]; male, ICR, mouse, brain, po, 30 mg/kg, ICR male mice, PO(30mg/kg), sampling time 12 h, individual animals, read-out: Brain concentration): 1000 ng/g
concentration at 36 h ([2]; male, ICR, mouse, brain, po, 30 mg/kg, ICR male mice, PO(30mg/kg), sampling time 36 h, individual animals, read-out: Brain concentration): 30 ng/g
concentration at 4 h ([2]; male, ICR, mouse, brain, po, 100 mg/kg, ICR male mice, PO(100mg/kg), sampling time 4 h, individual animals, read-out: Brain concentration): 5550 ng/g
concentration at 8 h ([2]; male, ICR, mouse, brain, po, 100 mg/kg, ICR male mice, PO(100mg/kg), sampling time 8 h, individual animals, read-out: Brain concentration): 2460 ng/g
concentration at 24 h ([2]; male, ICR, mouse, brain, po, 100 mg/kg, ICR male mice, PO(100mg/kg), sampling time 24 h, individual animals, read-out: Brain concentration): 427 ng/g
concentration at 4 h ([2]; male, ICR, mouse, plasma, po, 30 mg/kg, ICR male mice, PO(30mg/kg), sampling time 4 h, individual animals, read-out: Plasma concentration): 7520 ng/mL
concentration at 8 h ([2]; male, ICR, mouse, plasma, po, 30 mg/kg, ICR male mice, PO(30mg/kg), sampling time 8 h, individual animals, read-out: Plasma concentration): 6370 ng/mL
concentration at 12 h ([2]; male, ICR, mouse, plasma, po, 30 mg/kg, ICR male mice, PO(30mg/kg), sampling time 12 h, individual animals, read-out: Plasma concentration): 2750 ng/mL
concentration at 36 h ([2]; male, ICR, mouse, plasma, po, 30 mg/kg, ICR male mice, PO(30mg/kg), sampling time 36 h, individual animals, read-out: Plasma concentration): 49.6 ng/mL
concentration at 2 h ([2]; male, ICR, mouse, plasma, po, 100 mg/kg, ICR male mice, PO(100mg/kg), sampling time 2 h, individual animals): 38800 ng/mL
concentration at 4 h ([2]; male, ICR, mouse, plasma, po, 100 mg/kg, ICR male mice, PO(100mg/kg), sampling time 4 h, individual animals, read-out: Plasma concentration): 33100 ng/mL
concentration at 8 h ([2]; male, ICR, mouse, plasma, po, 100 mg/kg, ICR male mice, PO(100mg/kg), sampling time 8 h, individual animals, read-out: Plasma concentration): 12300 ng/mL
concentration at 24 h ([2]; male, ICR, mouse, plasma, po, 100 mg/kg, ICR male mice, PO(100mg/kg), sampling time 24 h, individual animals, read-out: Plasma concentration): 1330 ng/mL
brain penetration ([2]; rodents (ICR mice), oral 30 mg/kg or 100 mg/kg, result in words): favorable brain penetration
